The test system of experiment [1] is human myeloma cell lines (HMCLs). The experiment can be described thus: Growth assay for myeloma cells (Cell Titer Glo, 4 days, graded DNMTi concentrations). It counts as cell-based. Conditions: for IC50: Homo sapiens, 5-azacitidine. How it is done:
HMCLs were cultured for 4 days in 96-well flat-bottom microtiter plates in RPMI 1640 medium, 10% FCS, 2 ng/ml IL-6 culture medium (control), with graded decitabine concentrations. Data are mean values plus or minus standard deviation (SD) of 5 experiments determined on sextuplet culture wells.
HMCLs were cultured for 4 days in 96-well flat-bottom microtiter plates in RPMI 1640 medium, 10% FCS, 2 ng/ml IL-6 culture medium (control), and graded 5-azacitidine concentrations. Data are mean values plus or minus standard deviation (SD) of 5 experiments determined on sextuplet culture wells.
HMCLs were cultured for 4 days in 96-well flat-bottom microtiter plates in RPMI 1640 medium, 10% FCS, 2 ng/ml IL-6 culture medium (control), with graded decitabine concentrations. Cell growth was evaluated by quantifying intracellular ATP amount with a Cell Titer Glo Luminescent Assay (Promega, Madison, Wis.) with a Centro LB 960 luminometer (Berthold Technologies, Bad Wildbad, Germany).
The inventors sought to determine whether DM Score could predict for the sensitivity of 10 HMCLs to DNMT inhibitor. Starting from a large cohort of 40 HMCLs (22), the 10 HMCLs with the highest or lowest DM Score were selected to assay decitabine sensitivity.
HMCLs were cultured with graded 5-azacitidine (Sigma, St. Louis, Mo.) concentrations. HMCLs cell growth was quantified with a Cell Titer Glo Luminescent Assay (Promega, Madison, Wis.) and half inhibitory concentration (IC50) was determined using GraphPad Prism (http://www.graphpad.com/scientific-software/prism/).
A general note: ATP-based viability assays read luminescence as a measure of living cells.

Experiment [2] concerns primary myeloma cells of patients (CD138+ viable plasma cells). The experiment can be described thus: Mononuclear cell culture of patients' tumor samples, count of viable CD138+ myeloma cells by flow cytometry. The format is cell-based, human. Conditions: primary MMCs of high DM Score patients (N=7) versus low DM Score patients (N=7), P<0.05. As for the experimental part: Mononuclear cells from tumor samples of 12 patients with MM were cultured for 4 days in the presence of IL-6 (2 ng/ml) with or without graded decitabine concentrations. At day 4 of culture, the cell count and the viability were determined and the percentage of CD138^+ viable plasma cells was determined by flow cytometry. Black color represents patients with high DM Score (N=6) and white represents patients with low DM Score values (N=6).
Mononuclear cells from tumor samples of 14 patients with MM were cultured for 4 days in the presence of IL-6 (2 ng/ml) with or without graded 5-azacitidine concentrations. At day 4 of culture, the count of viable CD138′ MMCs was determined using flow cytometry. The black columns represent the mean±SD of primary myeloma cell counts (expressed as the percentage of the count without adding 5-azcytidine) of the 7 patients with a low DM Score and the white columns that of the 7 patients with a high DM Score.
Mononuclear cells from tumor samples of 12 patients with MM (agreement of the Center for Biological Resources of Montpellier University Hospital (N° DC-2008-417)) were cultured for 4 days at 2×10^5 cells/ml in RPMI 1640 medium, 10% FCS, 2 ng/ml IL-6, with or without graded concentrations of decitabine. In each culture group, viability and cell counts were assayed and MMCs were stained with an anti-CD138-PE mAb (Immunotech, Marseille, France) as previously described (32).
Primary myeloma cells of 14 patients were cultured with or without graded concentrations of 5-azacitidine and MMC cytotoxicity evaluated using anti-CD138-PE mAb (Immunotech, Marseille, France) as described (Jourdan, et al 1998; Mahtouk, et al 2004; Moreaux, et al 2012).

Where two headings read alike, the source gives them in different places.

As a reminder, the IC50 is the midpoint of a concentration-inhibition curve. For the compound `Nc1ncn([C@@H]2O[C@H](CO)[C@@H](O)[C@H]2O)c(=O)n1` [5-azacitidine, 5-Azacytidine], in experiment [1] (HMCLs with high DM Score versus low DM Score, P=0.01), the “fold higher 5-azacitidine sensitivity” value stood at 3 fold. Besides, the IC50 in experiment [1] (6 HMCLs with high DM Score, read-out: IC50 range) was 1.12 to 8.25 µM; in experiment [1] (6 HMCLs with high DM Score, read-out: median IC50), 2.43 µM; in experiment [1] (6 HMCLs with low DM Score, read-out: IC50 range), 5.73 to 27.9 µM; in experiment [1] (6 HMCLs with low DM Score, read-out: median IC50), 7.45 µM. Besides, the “fold higher 5-azacytidine sensitivity” value in experiment [2] worked out at 1.6 fold.

The record behind these values is patent US20150218654A1, “METHODS FOR PREDICTING MULTIPLE MYELOMA TREATMENT RESPONSE” (INSERM (INSTITUT NATIONAL DE LA SANTÉ ET DE LA RE- CHERCHE …, priority 2012, published 2015).
